These results are taken from patent US10100047B2, “Piperidine derivatives as orexin receptor antagonist” (SHANGHAI HAIYAN PHARMACEUTICAL TECHNOLOGY CO., LTD., priority 2014, dated 2018).

The target of one experiment is T1, hOX1R (Homo sapiens, UniProt O43613).
T1 construct: expressed in transfected cells
T1 sequence (O43613 1-425): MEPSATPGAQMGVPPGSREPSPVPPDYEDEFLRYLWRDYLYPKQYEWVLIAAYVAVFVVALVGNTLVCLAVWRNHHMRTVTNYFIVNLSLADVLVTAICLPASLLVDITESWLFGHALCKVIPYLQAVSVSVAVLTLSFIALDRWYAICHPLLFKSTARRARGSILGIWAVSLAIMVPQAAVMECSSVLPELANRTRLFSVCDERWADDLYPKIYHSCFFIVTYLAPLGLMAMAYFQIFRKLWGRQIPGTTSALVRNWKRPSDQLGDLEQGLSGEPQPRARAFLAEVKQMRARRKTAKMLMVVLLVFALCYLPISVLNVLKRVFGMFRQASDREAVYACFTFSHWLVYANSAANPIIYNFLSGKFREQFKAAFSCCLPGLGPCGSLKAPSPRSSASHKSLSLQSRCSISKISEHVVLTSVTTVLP
Briefly: In vitro test of OX1R: calcium signal change in cells detected with FLIPR. In kind it is cell-based. Particulars: IC50 detected in FLIPR, hOX1R, HEK293-OX1 stable cell strain, Fluo-4 AM calcium signal, Orexin A at EC70. The protocol: (§1) The inhibitive effect of a compound on OX1 and OX2 GPCR receptor was evaluated by detecting calcium signal change in cells with FLIPR, and IC50 value of compound was used as an indication.
(§2) Experimental Materials: • Cell line: HEK293-OX1 and OX2 stable cell strain • HEK293-OX1 cell culture media (DMEM, Invitrogen#11960-044, 10% serum Gibco#10099141, L-Glutamine 1×, Gibco#25030, sodium pyruvate 1×, Gibco #11360, Geneticin 300 μg/ml, Gibco #10131). • HEK293-OX2 cell culture media (DMEM, Invitrogen#11960-044, 10% serum Gibco#10099141, L-Glutamine 1×, Gibco#25030, sodium pyruvate 1×, Gibco #11360, Geneticin 300 μg/ml, Gibco #10131, Blasticin 2 μg/ml, Invitrogen # R21001). • Pancreatic enzyme (Invitrogen, #25200-072) • DPBS (Hyclone, #SH30028.01B) • Fluo-4 AM, Invitrogen# F14202 • F-127, Invitrogen # P3000MP • Probenecid, Sigma # P8761 • 384-well cell plate, Greiner #781946 • 384-well compound plate, Greiner #781280 • CO2 incubator, Thermo#371 • Centrifuge, Eppendorf #5810R • Vi-cell cytometry, Beckman Coulter • POD 810 Plate Assembler Automatic microplate pretreatment system • Labcyte FLIPR, Molecular Device.
(§3) a) cell inoculation (HEK293-OX1 and HEK293-OX2 cells) • 1) The medium trypsin, and DPBS were preheated at 37° C. under water bath. Culture medium of cells was sucked and cells were washed with 10 mL DPBS. • 2) The preheated trypsin was added into the culture bottle which was rotated so that trypsin uniformly covered the bottle. It was placed in an incubator (37° C., 5% CO2) to digest for 1-2 minutes; • 3) Each T150 was suspended with 10-15 mL of culture medium, and centrifuged at 800 rpm for 5 minutes. Cells were resuspended with 10 mL medium, and 1 mL of the cell re-suspension was sucked out and counted with Vi-cell cytometry. • 4) The OX1 cells were diluted with culture medium to 5×10^5 cells/mL, and OX2 cells were diluted to 4×10^5 cells/mL. The diluted cells were added into 384 plate (Greiner. 781946) with multichannel pipettes (50 μL/hole, OX1 cells: 25000 cells/hole; and OX2 cells: 20000 cells/hole). The cell plate was placed in an incubator (37° C., 5% CO2) overnight.
(§4) b) loading of the compound: • 1) DMSO was used to dilute the compound into 20 mM by using 3-fold dilution. 8 gradients in duplicate wells were used. Echo liquid handler was used to add the compound into a compound plate. Then 20 μL buffer was added to ensure that the final DMSO concentration was 0.1%.
(§5) c) FLIPR Experiment: • 1) The cell culture medium in 384-well plate was washed away with a vacuum pump. 30 μL fluorescent dye Fluo4AM was added. […] 8 gradients in duplicate wells were used. Then the DMSO plate was prepared and the DMSO concentration was 0.5%. The cell plate, Orexin A plate, and DMSO plate were placed into FLIPR respectively, and the fluorescence values were read. • 3) EC70 value was calculated based on EC50 value of Orexin A. 5×EC70 solution was prepared and added into a 384-well compound plate with multichannel pipettes. The plate was placed on ice for preservation. • 4) In the FLIPR, the compound plate, 5×EC70 plate, cell plate and FLIPR tips were placed respectively. The program was run and the fluorescence values were read.
(§6) d) Data Analysis: Prism5.0 was used to analysis the data, and the IC50 value of the compound was calculated.

Another experiment deals with T2, hOX2R (Homo sapiens, UniProt O43614).
T2 construct: expressed in transfected cells
T2 sequence (O43614 1-444): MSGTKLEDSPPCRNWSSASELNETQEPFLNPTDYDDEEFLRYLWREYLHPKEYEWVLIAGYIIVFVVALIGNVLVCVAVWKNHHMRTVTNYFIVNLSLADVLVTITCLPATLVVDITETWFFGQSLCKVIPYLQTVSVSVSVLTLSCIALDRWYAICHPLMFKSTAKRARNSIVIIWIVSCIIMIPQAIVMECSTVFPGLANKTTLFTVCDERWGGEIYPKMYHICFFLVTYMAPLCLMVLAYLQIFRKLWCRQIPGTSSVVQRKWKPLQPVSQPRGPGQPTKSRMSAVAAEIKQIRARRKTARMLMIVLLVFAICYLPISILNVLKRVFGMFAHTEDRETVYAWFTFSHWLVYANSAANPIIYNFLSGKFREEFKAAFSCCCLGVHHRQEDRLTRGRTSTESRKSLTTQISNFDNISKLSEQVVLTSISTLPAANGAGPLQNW
Kind of experiment: In vitro test of OX2R: calcium signal change in cells detected with FLIPR. In kind it is cell-based. The following applies: IC50 detected in FLIPR, hOX2R, HEK293-OX2 stable cell strain, Fluo-4 AM calcium signal, Orexin A at EC70. The protocol:
as §1, §2, §3, §4, §5, §6

What is called IC50 is the concentration at which inhibition is half-maximal. For the molecule `Cc1cccc(S(=O)(=O)N2C3CC[C@H]2CC[C@@H]3COc2ccc(F)cn2)c1` [Example 22], the results for the IC50 at hOX1R and on hOX2R were 2420 nM and 1370 nM, respectively.
Take `Cc1ccc(-c2ccccc2)c(C(=O)N2C3CC[C@H]2CC[C@@H]3COc2ccc(F)cn2)c1` [Example 12]: the results for the IC50 on hOX1R and on hOX2R were 219 nM and 206 nM, respectively.
Consider `O=C(c1cc(C(F)(F)F)ccc1-c1ncccn1)N1C2CC[C@H]1CC[C@@H]2COc1ccc(F)cn1` [Example 35], for which the concentration for half-maximal inhibition (IC50) is 2070 nM on hOX1R and 1420 nM on hOX2R.
